According to patent US8580806B2, “Salts of 4-methyl N-[3-(4-methyl-imidazol-1-yl)-5-trifluoromethyl-phenyl]-3-(4-pyridin-3-yl-pyrimidin-2-ylamino)-benzamide” (Novartis AG, priority 2005, dated 2013):
Where a name gives a salt, the structure may show the parent alone. Read-outs that look alike come from different tables or passages of the source.

Tests used:
[1] = Decomposition temperature by TGA; assay type: physicochemical; conditions: for Decomposition temperature: TGA, onset of the first derivative of sample weight loss v. temperature; for decomposes at: as stated in the description of the embodiments
Experimental: The LOD and decomposition temperature of the salts of the invention were determined by TGA, and the melting point was determined by DSC.

[2] = Hygroscopicity by TGA after one day at ambient temperature and 93% relative humidity; assay type: physicochemical; conditions: ambient temperature
Experimental: The hygroscopicity of the salts of the invention was determined by TGA after one day at ambient temperature and 93% relative humidity.

[3] = pH 3.0 buffer, ambient temperature, at least 20 hours
Experimental: The solubility of the salts of the invention was determined in pH 6.8, pH 3.0 and pH 1.0 buffers by suspending 1-5 mg of each salt in 10 mL of corresponding aqueous solution. The samples were allowed to equilibrate at ambient temperature for at least 20 hours for pH 6.8 and 3.0 or about 5 hours for pH 1.0. The supernatant was filtered and used for the solubility determination by UV-VIS spectroscopy.

SMILES | Decomposition temperature [1] [°C] | % moisture gain [2] [%] | decomposes at [1] | further results
Cc1cn(-c2cc(NC(=O)c3ccc(C)c(Nc4nccc(-c5cccnc5)n4)c3)cc(C(F)(F)F)c2)cn1 [Benzene sulfonate, 4-methyl-N-[3-(4-methyl-imidazol-1-yl)-5-trifluoromethyl-phenyl]-3-(4-pyridin-3-yl-pyrimidin-2-ylamino)-benzamide mono benzyl sulfonate salt] | 260 | 0.11 | – | decomposes at ([1]; listed as benzene sulfonate salt): about 260 °C
CCS(=O)(=O)O.Cc1cn(-c2cc(NC(=O)c3ccc(C)c(Nc4nccc(-c5cccnc5)n4)c3)cc(C(F)(F)F)c2)cn1 [Ethane sulfonate, ethane sulfonate salt of 4-methyl-N-[3-(4-methyl-imidazol-1-yl)-5-trifluoromethyl-phenyl]-3-(4-pyridin-3-yl-pyrimidin-2-ylamino)-benzamide] | 220 | 1.11 | about 220 °C | Solubility at pH 3.0 [3]: 2.8 μg/mL
Cc1cn(-c2cc(NC(=O)c3ccc(C)c(Nc4nccc(-c5cccnc5)n4)c3)cc(C(F)(F)F)c2)cn1 [Methane sulfonate, 4-methyl-N-[3-(4-methyl-imidazol-1-yl)-5-trifluoromethyl-phenyl]-3-(4-pyridin-3-yl-pyrimidin-2-ylamino)-benzamide mesylate salt] | – | – | – | Solubility at pH 3.0 ([3]; listed as Methane sulfonate salt, mesylate salt): 5.2 μg/mL; Decomposition temperature ([1]; mesylate salt): 260 °C; decomposes at ([1]; listed as methane sulfonate (mesylate) salt, mesylate salt): about 260 °C; % moisture gain ([2]; mesylate salt): 0.22%
Cc1cn(-c2cc(NC(=O)c3ccc(C)c(Nc4nccc(-c5cccnc5)n4)c3)cc(C(F)(F)F)c2)cn1 [Monophosphate, 4-methyl-N-[3-(4-methyl-imidazol-1-yl)-5-trifluoromethyl-phenyl]-3-(4-pyridin-3-yl-pyrimidin-2-ylamino)-benzamide monophosphate salt] | – | – | – | Decomposition temperature ([1]; monophosphate salt): 212 °C; decomposes at ([1]; monophosphate salt): about 212 °C; % moisture gain ([2]; monophosphate salt): 1.33%
Cc1cn(-c2cc(NC(=O)c3ccc(C)c(Nc4nccc(-c5cccnc5)n4)c3)cc(C(F)(F)F)c2)cn1.O=S(=O)(O)O [Sulfate (form B), sulfate salt of 4-methyl-N-[3-(4-methyl-imidazol-1-yl)-5-trifluoromethyl-phenyl]-3-(4-pyridin-3-yl-pyrimidin-2-ylamino)-benzamide] | 201 | 0.22 | about 206 °C | Solubility at pH 3.0 [3]: 6.5 μg/mL
Cc1cn(-c2cc(NC(=O)c3ccc(C)c(Nc4nccc(-c5cccnc5)n4)c3)cc(C(F)(F)F)c2)cn1.O=P(O)(O)O.O=P(O)(O)O [diphosphate salt, diphosphate salt of 4-methyl-N-[3-(4-methyl-imidazol-1-yl)-5-trifluoromethyl-phenyl]-3-(4-pyridin-3-yl-pyrimidin-2-ylamino)-benzamide] | – | – | about 210 °C | –
Cc1cn(-c2cc(NC(=O)c3ccc(C)c(Nc4nccc(-c5cccnc5)n4)c3)cc(C(F)(F)F)c2)cn1 [p-Toluene sulfonate, 4-methyl-N-[3-(4-methyl-imidazol-1-yl)-5-trifluoromethyl-phenyl]-3-(4-pyridin-3-yl-pyrimidin-2-ylamino)-benzamide p-toluene sulfonate salt] | 256 | 1.02 | about 256 °C | –
